Reference: patent US20260315464A1, “COMPOSITIONS, METHODS, AND SYSTEMS FOR MODULATING SPLICING OF MSH3” (REVIR THERAPEUTICS, INC., priority 2023, published 2026)

Test system: MSH3
Test: QPCR assay for levels of MSH3 upon compound treatment in HEK293T or AD293 cells (fold-change of MSH3 transcript, EC50 of MSH3 downregulation; total MSH3 exons 13/14, exons 20/21; Table 8)
Format: cell-based
Settings: for mrna remaining at 1 µM / mrna remaining at 10 µM: Homo sapiens, fold-change of the MSH3 transcript, normalized to GAPDH; for mrna remaining at 1 µM: 1 μM compound; for mrna remaining at 10 µM: 10 μM compound; for EC50: EC50 of MSH3 downregulation, XtalPi
Description: HEK293T or AD293 cells were treated with Compound 274 at 1 μM and […]. RNA, cDNA and qPCR was prepared using TaqMan Cells-to-CT Express kit (ThermoFisher Scientific). Taqman assays (ThermoFisher Scientific) were used for quantification of total MSH3 exons 13/14 (cat #4351372, ID #: Hs00988993_ml), total MSH3 exons 20/21 (cat #4351372, ID #: Hs00989000_ml), exon 13/PE14A (Fwd: 5′-[…]; Rev: 5′-[…]; Probe: 5′-[…]) and exon 20/PE21A (Fwd: 5′-[…]; Rev: 5′-[…]; Probe: 5′-[…]) mRNA expression. Taqman GAPDH (cat #4448489, ID #: Hs02758991_g1) was used as a reference for data normalization.

Row | EC50 | Compound | mrna remaining at 1 µM | mrna remaining at 10 µM
1 | – | Cc1nc(C)c(-c2cnc3c(c2)C(=O)N(c2cnc(N(C)[C@H]4C[C@]5(C)CC[C@](C)(C4)N5)nn2)C3)s1 [Compound 200, 6-(3-(((1R,3s,5S)-1,5-dimethyl-8-azabicyclo[3.2.1]octan-3-yl)(methyl)amino)-1,2,4-triazin-6-yl)-3-(2,4-dimethylthiazol-5-yl)-6,7-dihydro-5H-pyrrolo[3,4-b]pyridin-5-one] | 53% | 53%
2 | – | Cn1cc(-c2cnc3c(c2)C(=O)N(c2ccc(O[C@H]4C[C@]5(C)CC[C@](C)(C4)N5)nn2)C3)c(C(F)(F)F)n1 [Compound 201, 6-(6-(((1R,3s,5S)-1,5-dimethyl-8-azabicyclo[3.2.1]octan-3-yl)oxy)pyridazin-3-yl)-3-(1-methyl-3-(trifluoromethyl)-1H-pyrazol-4-yl)-6,7-dihydro-5H-pyrrolo[3,4-b]pyridin-5-one] | 90% | 91%
3 | – | COc1cc(OC2CC(C)(C)NC(C)(C)C2)nnc1N1Cc2ncc(-c3cn(C)nc3C)cc2C1=O [Compound 203, 3-(1,3-dimethyl-1H-pyrazol-4-yl)-6-(4-methoxy-6-((2,2,6,6-tetramethylpiperidin-4-yl)oxy)pyridazin-3-yl)-6,7-dihydro-5H-pyrrolo[3,4-b]pyridin-5-one] | 56% | 62%
4 | 1420 nM | Cc1nn(C)cc1-c1cnc2c(c1)C(=O)N(c1ccc(OC3CC(C)(C)NC4(CC4)C3)nn1)C2 (centres unmarked) [Compound 205, 3-(1,3-dimethyl-1H-pyrazol-4-yl)-6-(6-((5,5-dimethyl-4-azaspiro[2.5]octan-7-yl)oxy)pyridazin-3-yl)-6,7-dihydro-5H-pyrrolo[3,4-b]pyridin-5-one] | 90% | 14%
5 | 507 nM | Cc1nn(C)nc1-c1cnc2c(c1)C(=O)N(c1ccc(O[C@H]3C[C@]4(C)CC[C@](C)(C3)N4)nn1)C2 [Compound 206, 3-(2,5-dimethyl-2H-1,2,3-triazol-4-yl)-6-(6-(((1R,3s,5S)-1,5-dimethyl-8-azabicyclo[3.2.1]octan-3-yl)oxy)pyridazin-3-yl)-6,7-dihydro-5H-pyrrolo[3,4-b]pyridin-5-one] | 36% | 13%
6 | ~3050 nM | Cc1nn(C)cc1-c1cnc2c(c1)C(=O)N(c1ccc(NC3CC(C)(C)NC(C)(C)C3)nn1)C2 [Compound 207, 3-(1,3-dimethyl-1H-pyrazol-4-yl)-6-(6-((2,2,6,6-tetramethylpiperidin-4-yl)amino)pyridazin-3-yl)-6,7-dihydro-5H-pyrrolo[3,4-b]pyridin-5-one] | 108% | 18%
7 | – | Cc1nn(C)cc1-c1cnc2c(c1)C(=O)N(c1ccc(O[C@@H]3CC(C)(C)NC(C)(C)[C@@H]3F)nn1)C2 [Compound 211, 3-(1,3-dimethyl-1H-pyrazol-4-yl)-6-(6-(((3S,4R)-3-fluoro-2,2,6,6-tetramethylpiperidin-4-yl)oxy)pyridazin-3-yl)-6,7-dihydro-5H-pyrrolo[3,4-b]pyridin-5-one] | 90% | 55%
8 | – | Cc1nn(C)cc1-c1cnc2c(c1)C(=O)N(c1ccc(O[C@@H]3C[C@@]4(C)CC[C@](C)(N4)[C@@H]3F)nn1)C2 [Compound 214, 3-(1,3-dimethyl-1H-pyrazol-4-yl)-6-(6-(((1S,2S,3R,5R)-2-fluoro-1,5-dimethyl-8-azabicyclo[3.2.1]octan-3-yl)oxy)pyridazin-3-yl)-6,7-dihydro-5H-pyrrolo[3,4-b]pyridin-5-one] | 95% | 24%
9 | – | Cc1nn(C)cc1-c1cnc2c(c1)C(=O)N(c1ccc(O[C@@H]3C[C@@]4(C)CC[C@](C)(N4)[C@H]3F)nn1)C2 [Compound 215, 3-(1,3-dimethyl-1H-pyrazol-4-yl)-6-(6-(((1S,2R,3R,5R)-2-fluoro-1,5-dimethyl-8-azabicyclo[3.2.1]octan-3-yl)oxy)pyridazin-3-yl)-6,7-dihydro-5H-pyrrolo[3,4-b]pyridin-5-one] | 97% | 76%
10 | – | CN(c1ncc(N2Cc3ncc(-c4cn(C)nc4F)cc3C2=O)nn1)[C@H]1C[C@]2(C)CC[C@](C)(C1)N2 [Compound 217, 6-(3-(((1R,3s,5S)-1,5-dimethyl-8-azabicyclo[3.2.1]octan-3-yl)(methyl)amino)-1,2,4-triazin-6-yl)-3-(3-fluoro-1-methyl-1H-pyrazol-4-yl)-6,7-dihydro-5H-pyrrolo[3,4-b]pyridin-5-one] | 92% | 78%
11 | – | Cc1nn(C)cc1-c1cnc2c(c1)C(=O)N(c1ccc(OC3CCNC(C)(C)C3)nn1)C2 (centres unmarked) [Compound 226, 3-(1,3-dimethyl-1H-pyrazol-4-yl)-6-(6-((2,2-dimethylpiperidin-4-yl)oxy)pyridazin-3-yl)-6,7-dihydro-5H-pyrrolo[3,4-b]pyridin-5-one] | 86% | 58%
12 | 792 nM | Cc1nn(C)nc1-c1cnc2c(c1)C(=O)N(c1ccc(OC3CC(C)(C)NC4(CC4)C3)nn1)C2 (centres unmarked) [Compound 228, 3-(2,5-dimethyl-2H-1,2,3-triazol-4-yl)-6-(6-((5,5-dimethyl-4-azaspiro[2.5]octan-7-yl)oxy)pyridazin-3-yl)-6,7-dihydro-5H-pyrrolo[3,4-b]pyridin-5-one] | 58% | 37%
13 | 2040 nM | CC[C@]12CC[C@](CC)(C[C@@H](Oc3ccc(N4Cc5ncc(-c6cn(C)nc6C)cc5C4=O)nn3)C1)N2 [Compound 239, 6-(6-(((1R,3s,5S)-1,5-diethyl-8-azabicyclo[3.2.1]octan-3-yl)oxy)pyridazin-3-yl)-3-(1,3-dimethyl-1H-pyrazol-4-yl)-6,7-dihydro-5H-pyrrolo[3,4-b]pyridin-5-one] | 84% | 19%
14 | 2310 nM | CC[C@]12CC[C@](C)(C[C@@H](Oc3ccc(N4Cc5ncc(-c6cn(C)nc6C)cc5C4=O)nn3)C1)N2 [Compound 240, 3-(1,3-dimethyl-1H-pyrazol-4-yl)-6-(6-(((1S,3R,5R)-1-ethyl-5-methyl-8-azabicyclo[3.2.1]octan-3-yl)oxy)pyridazin-3-yl)-6,7-dihydro-5H-pyrrolo[3,4-b]pyridin-5-one] | 87% | 16%
15 | – | Cn1cc(-c2cnc3c(c2)C(=O)N(c2ccc(O[C@H]4C[C@]5(C)CC[C@](C)(C4)N5)nn2)C3)c(Cl)n1 [Compound 261, 3-(3-chloro-1-methyl-1H-pyrazol-4-yl)-6-(6-(((1R,3s,5S)-1,5-dimethyl-8-azabicyclo[3.2.1]octan-3-yl)oxy)pyridazin-3-yl)-6,7-dihydro-5H-pyrrolo[3,4-b]pyridin-5-one] | 48% | 7%
16 | – | Cc1nn(C)cc1-c1cc(F)c2c(c1)C(=O)N(c1ccc(N(C)C3CC(C)(C)NC(C)(C)C3)nn1)C2 [Compound 275, 6-(1,3-dimethyl-1H-pyrazol-4-yl)-4-fluoro-2-(6-(methyl(2,2,6,6-tetramethylpiperidin-4-yl)amino)pyridazin-3-yl)isoindolin-1-one] | 79% | 26%
17 | – | Cc1nn(C)cc1-c1cc(F)c2c(c1)C(=O)N(c1ccc(OC3CC(C)(C)NC(C)(C)C3)nn1)C2 [Compound 276, 6-(1,3-dimethyl-1H-pyrazol-4-yl)-4-fluoro-2-(6-((2,2,6,6-tetramethylpiperidin-4-yl)oxy)pyridazin-3-yl)isoindolin-1-one] | 103% | 38%
18 | – | Cc1nn(C)cc1-c1cc(F)c2c(c1)C(=O)N(c1ccc(O[C@H]3C[C@]4(C)CC[C@](C)(C3)N4)nn1)C2 [Compound 278, 6-(1,3-dimethyl-1H-pyrazol-4-yl)-2-(6-(((1R,3s,5S)-1,5-dimethyl-8-azabicyclo[3.2.1]octan-3-yl)oxy)pyridazin-3-yl)-4-fluoroisoindolin-1-one] | 64% | 14%
19 | – | Cc1nn(C)cc1-c1cc(F)c2c(c1)C(=O)N(c1ccc(O[C@H]3CC(C)(C)NC(C)(C)[C@H]3F)nn1)C2 [Compound 280, 6-(1,3-dimethyl-1H-pyrazol-4-yl)-4-fluoro-2-(6-(((3R,4S)-3-fluoro-2,2,6,6-tetramethylpiperidin-4-yl)oxy)pyridazin-3-yl)isoindolin-1-one] | 99% | 66%
20 | – | Cc1nn(C)cc1-c1cc(F)c2c(c1)C(=O)N(c1ccc(O[C@H]3C[C@]4(C)CC[C@@](C)(N4)[C@H]3F)nn1)C2 [Compound 281, 6-(1,3-dimethyl-1H-pyrazol-4-yl)-4-fluoro-2-(6-(((1R,2R,3S,5S)-2-fluoro-1,5-dimethyl-8-azabicyclo[3.2.1]octan-3-yl)oxy)pyridazin-3-yl)isoindolin-1-one] | 85% | 41%
21 | – | Cc1nn(C)nc1-c1cc(F)c2c(c1)C(=O)N(c1ccc(OC3CC(C)(C)NC(C)(C)C3)nn1)C2 [Compound 282, 6-(2,5-dimethyl-2H-1,2,3-triazol-4-yl)-4-fluoro-2-(6-((2,2,6,6-tetramethylpiperidin-4-yl)oxy)pyridazin-3-yl)isoindolin-1-one] | 30% | 59%

Row | Compound | EC50 | mrna remaining at 1 µM | mrna remaining at 10 µM
22 | Cc1nn(C)cc1-c1cc(F)c2c(c1)C(=O)N(c1ccc(N(C)[C@H]3C[C@]4(C)CC[C@](C)(C3)N4)nn1)C2 [Compound 274, 6-(1,3-dimethyl-1H-pyrazol-4-yl)-2-(6-(((1R,3s,5S)-1,5-dimethyl-8-azabicyclo[3.2.1]octan-3-yl)(methyl)amino)pyridazin-3-yl)-4-fluoroisoindolin-1-one] | 454 nM | 17% | –
